This experiment relates to LOX IMVI melanoma, caspase 3/7 luminescence, apoptosis. Description: caspase 3/7 activation in LOX IMVI melanoma cells, dose response, mechanism study for HRAS target identification, cell-based, luminescence, multiple timepoints, dry powder (AID 652072). Particulars: measured here: caspase 3/7, timepoint 3.

Inconclusive results are not listed.

Here are results for 1 compound from PubChem BioAssay AID652072 (Broad Institute, 2013).

Compound `CCC(=O)N(c1ccc(OC)c(Cl)c1)C(C(=O)NCCc1ccccc1)c1cccs1` (stereo unspecified) showed an AC40 greater than 35 µM.
